Target: T1, Tyrosine-protein phosphatase non-receptor type 11 (Homo sapiens, UniProt Q06124)
T1 sequence (Q06124 whole entry): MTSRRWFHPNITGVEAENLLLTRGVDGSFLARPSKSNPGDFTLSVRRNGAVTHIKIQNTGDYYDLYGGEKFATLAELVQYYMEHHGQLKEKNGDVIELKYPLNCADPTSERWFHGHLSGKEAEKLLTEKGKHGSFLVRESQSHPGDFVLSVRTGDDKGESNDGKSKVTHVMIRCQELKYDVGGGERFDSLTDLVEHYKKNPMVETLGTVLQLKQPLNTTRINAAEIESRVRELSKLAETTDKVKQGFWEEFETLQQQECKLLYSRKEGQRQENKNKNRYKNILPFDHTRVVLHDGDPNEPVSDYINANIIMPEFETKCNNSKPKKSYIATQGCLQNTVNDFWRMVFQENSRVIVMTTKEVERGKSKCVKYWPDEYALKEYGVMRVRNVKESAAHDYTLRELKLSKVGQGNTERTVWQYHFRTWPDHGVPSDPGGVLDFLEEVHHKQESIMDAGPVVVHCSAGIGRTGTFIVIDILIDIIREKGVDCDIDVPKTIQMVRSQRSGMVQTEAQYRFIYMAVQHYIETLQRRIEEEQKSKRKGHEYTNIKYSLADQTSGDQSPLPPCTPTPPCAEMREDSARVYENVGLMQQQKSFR
Experiment: Allosteric Inhibition Assay

Compound | IC50
N[C@@H]1c2ccccc2CC12CCN(c1cnc(/C(=N/O)c3ccccc3)cn1)CC2 [US10934302, Example 257] | < 0.05 µM
N[C@@H]1c2ccccc2CC12CCN(c1cnc(SCC3CC3)cn1)CC2 [US10934302, Example 266] | < 0.05 µM
Cc1cc(C(=O)N2CCC3(CC2)Cc2ccccc2[C@H]3N)nn1-c1ccc(F)cc1F [US10934302, Example 289] | < 0.05 µM

— BindingDB's records for patent US10934302 (Relay Therapeutics, 2021)
